Test results: the supplement of paper PMC10733146

How the values were obtained:
Test in all cases: viability relative to DMSO control (fraction); higher = less drug effect (more viable cells)
Settings in all cases: 48 h
[1] = system: primary AML patient cells (S002)
Outline: (§1)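 Primary mononuclear tumour cells (Ficoll-isolated from blood or bone marrow, or processed lymph node; fresh or cryopreserved) were plated at 4 × 10^4 cells per well in 384-well plates with pre-plated compounds at five concentrations, one well each. Medium was RPMI-1640 with penicillin/streptomycin, L-glutamine and human serum, at 37 °C and 5% CO2 for 48 h. Viability was read as CellTiter-Glo luminescence relative to the median of 16 inner DMSO wells.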

[2] = system: primary AML patient cells (S009)
Outline: as §1

[3] = system: primary AML patient cells (S017)
Outline: as §1

[4] = system: primary AML patient cells (S021)
Outline: as §1

[5] = system: primary AML patient cells (S025)
Outline: as §1

[6] = system: primary AML patient cells (S037)
Outline: as §1

[7] = system: primary AML patient cells (S055)
Outline: as §1

[8] = system: primary AML patient cells (S060)
Outline: as §1

[9] = system: primary AML patient cells (S071)
Outline: as §1

[10] = system: primary AML patient cells (S072)
Outline: as §1

[11] = system: primary AML patient cells (S081)
Outline: as §1

[12] = system: primary AML patient cells (S089)
Outline: as §1

[13] = system: primary AML patient cells (S091)
Outline: as §1

[14] = system: primary B-PLL patient cells (S016)
Outline: as §1

[15] = system: primary BL patient cells (S005)
Outline: as §1

[16] = system: primary CLL patient cells (S043)
Outline: as §1

[17] = system: primary DLBCL patient cells (S082)
Outline: as §1

[18] = system: primary MCL patient cells (S068)
Outline: as §1

[19] = system: primary T-PLL patient cells (S008)
Outline: as §1

Compound: CNC(=O)c1cc(Oc2ccc(NC(=O)Nc3ccc(Cl)c(C(F)(F)F)c3)cc2)ccn1 [Sorafenib]
- viability ([1]; 0.024 µM): 0.941
- viability ([1]; 0.12 µM): 1.07
- viability ([1]; 0.6 µM): 1.09
- viability ([1]; 3 µM): 1.29
- viability ([1]; 15 µM): 0.601
- viability ([2]; 0.024 µM): 0.947
- viability ([2]; 0.12 µM): 0.828
- viability ([2]; 0.6 µM): 0.869
- viability ([2]; 3 µM): 0.985
- viability ([2]; 15 µM): 0.906
- viability ([3]; 0.024 µM): 0.955
- viability ([3]; 0.12 µM): 0.988
- viability ([3]; 0.6 µM): 0.935
- viability ([3]; 3 µM): 1.04
- viability ([3]; 15 µM): 0.927
- viability ([4]; 0.024 µM): 0.995
- viability ([4]; 0.12 µM): 1.09
- viability ([4]; 0.6 µM): 1.07
- viability ([4]; 3 µM): 1.12
- viability ([4]; 15 µM): 0.888
- viability ([5]; 0.024 µM): 0.988
- viability ([5]; 0.12 µM): 1.02
- viability ([5]; 0.6 µM): 1.06
- viability ([5]; 3 µM): 1.13
- viability ([5]; 15 µM): 0.813
- viability ([6]; 0.024 µM): 0.961
- viability ([6]; 0.12 µM): 1.06
- viability ([6]; 0.6 µM): 1.05
- viability ([6]; 3 µM): 1.05
- viability ([6]; 15 µM): 1.09
- viability ([7]; 0.024 µM): 0.971
- viability ([7]; 0.12 µM): 1.04
- viability ([7]; 0.6 µM): 1.02
- viability ([7]; 3 µM): 1.08
- viability ([7]; 15 µM): 1.04
- viability ([8]; 0.024 µM): 0.963
- viability ([8]; 0.12 µM): 0.951
- viability ([8]; 0.6 µM): 1.02
- viability ([8]; 3 µM): 1.02
- viability ([8]; 15 µM): 1.09
- viability ([9]; 0.024 µM): 0.944
- viability ([9]; 0.12 µM): 1.01
- viability ([9]; 0.6 µM): 1.02
- viability ([9]; 3 µM): 1
- viability ([9]; 15 µM): 0.614
- viability ([10]; 0.024 µM): 1.02
- viability ([10]; 0.12 µM): 1.04
- viability ([10]; 0.6 µM): 0.99
- viability ([10]; 3 µM): 1.04
- viability ([10]; 15 µM): 1.01
- viability ([11]; 0.024 µM): 0.918
- viability ([11]; 0.12 µM): 0.958
- viability ([11]; 0.6 µM): 1.03
- viability ([11]; 3 µM): 0.99
- viability ([11]; 15 µM): 1.06
- viability ([12]; 0.024 µM): 0.847
- viability ([12]; 0.12 µM): 0.645
- viability ([12]; 0.6 µM): 0.822
- viability ([12]; 3 µM): 0.973
- viability ([12]; 15 µM): 0.587
- viability ([13]; 0.024 µM): 0.929
- viability ([13]; 0.12 µM): 1.13
- viability ([13]; 0.6 µM): 1.34
- viability ([13]; 3 µM): 1.98
- viability ([13]; 15 µM): 1.46
- viability ([14]; 0.024 µM): 0.964
- viability ([14]; 0.12 µM): 1.05
- viability ([14]; 0.6 µM): 1.01
- viability ([14]; 3 µM): 1
- viability ([14]; 15 µM): 0.978
- viability ([15]; 0.024 µM): 0.839
- viability ([15]; 0.12 µM): 0.905
- viability ([15]; 0.6 µM): 0.92
- viability ([15]; 3 µM): 0.957
- viability ([15]; 15 µM): 0.885
- viability ([16]; 0.024 µM): 0.938
- viability ([16]; 0.12 µM): 1.05
- viability ([16]; 0.6 µM): 0.94
- viability ([16]; 3 µM): 1.08
- viability ([16]; 15 µM): 0.858
- viability ([17]; 0.024 µM): 1
- viability ([17]; 0.12 µM): 1.02
- viability ([17]; 0.6 µM): 1.03
- viability ([17]; 3 µM): 1.18
- viability ([17]; 15 µM): 1.35
- viability ([18]; 0.024 µM): 0.919
- viability ([18]; 0.12 µM): 1.03
- viability ([18]; 0.6 µM): 1.03
- viability ([18]; 3 µM): 1.22
- viability ([18]; 15 µM): 1.66
- viability ([19]; 0.024 µM): 0.955
- viability ([19]; 0.12 µM): 0.997
- viability ([19]; 0.6 µM): 1.02
- viability ([19]; 3 µM): 0.973
- viability ([19]; 15 µM): 0.948
